Here are results for 13 molecules from ChEMBL document CHEMBL5365469, “Design, synthesis and antitumor effects of novel benzimidazole derivatives as PI3K inhibitors” (Bioorg Med Chem Lett, 2023).

The IC50 is the point on the concentration scale where inhibition reaches its midpoint.

Common to all, as to format: functional, cell-based
For one experiment, the system named is A549. Kind of experiment: Antiproliferative activity against human A549 cells assessed as inhibition of cell growth by MTT assay. (In general: Formazan colour is commonly taken as a measure of viable cells.)
The next experiment has as its system MCF7. Kind of experiment: Antiproliferative activity against human MCF7 cells assessed as inhibition of cell growth by MTT assay.
For a further experiment, the system named is SiHa. Kind of experiment: Antiproliferative activity against human SiHa cells assessed as inhibition of cell growth by MTT assay.
For a further experiment, the system named is HCT-116. Nature of the experiment: Antiproliferative activity against human HCT-116 cells assessed as inhibition of cell growth by MTT assay.
The next experiment has as its system HepG2. Kind of experiment: Antiproliferative activity against human HepG2 cells assessed as inhibition of cell growth by MTT assay.
A further experiment concerns PC-3. Kind of experiment: Antiproliferative activity against human PC-3 cells assessed as inhibition of cell growth by MTT assay.

Molecules are shown by their SMILES.

For the molecule `CCOC(=O)/C=C/c1cc2[nH]c(-c3ccc(OC)c(OC)c3OC)nc2cc1OC`, the IC50 is above 100 µM in the experiment with A549; above 100 µM with MCF7; 80.6 µM with SiHa; 75.1 µM in the experiment with HCT-116; above 100 µM in the experiment with HepG2; 84.9 µM in the experiment on PC-3.

With `COc1cc2nc(-c3cc(OC)c(OC)cc3OC)[nH]c2cc1/C=C/C(N)=O`, the IC50 in the experiment on A549 was 93.3 µM; in the experiment with MCF7, 77.8 µM; in the experiment with SiHa it was 5.27 µM; in the experiment on HCT-116 it was 29 µM; with HepG2 it was above 100 µM; with PC-3, 22.6 µM.

As to `COc1cc2nc(-c3ccc(OC)c(OC)c3OC)[nH]c2cc1/C=C/C(=O)N1CCOCC1`, the IC50 is above 100 µM in the experiment with A549; above 100 µM with MCF7; 76 µM in the experiment on SiHa; 67.8 µM in the experiment on HCT-116; above 100 µM in the experiment on HepG2; 37.6 µM in the experiment with PC-3.

On to `COc1cc2nc(-c3ccc(OC)c(OC)c3OC)[nH]c2cc1/C=C/C(=O)NC(C)(C)C`, for which the 50% inhibitory concentration (IC50) with A549 is above 100 µM; with MCF7, above 100 µM; in the experiment with SiHa, 38 µM; in the experiment on HCT-116, 15.3 µM; with HepG2, above 100 µM; in the experiment with PC-3, 19.6 µM.

As for `COc1cc2nc(-c3ccc(OC)c(OC)c3OC)[nH]c2cc1C#Cc1ccccc1Cl`, the IC50 in the experiment on A549 was above 100 µM; in the experiment with MCF7, above 100 µM; in the experiment on SiHa it was above 100 µM; with HCT-116, 81.4 µM; with HepG2 it was 96.8 µM; in the experiment with PC-3 it was 22.7 µM.

On to `COc1cc2nc(-c3ccc(OC)c(OC)c3OC)[nH]c2cc1C#Cc1ccc(Cl)cc1`, for which the concentration for half-maximal inhibition (IC50) is above 100 µM in the experiment with A549; above 100 µM in the experiment with MCF7; above 100 µM with SiHa; 10.4 µM in the experiment on HCT-116; 66.2 µM in the experiment with HepG2; 20.4 µM in the experiment on PC-3.

Take `COc1cc2nc(-c3ccc(OC)c(OC)c3OC)[nH]c2cc1/C=C/C(=O)NCCO`: the IC50 in the experiment with A549 is above 100 µM; in the experiment with MCF7, above 100 µM; with SiHa, 22.6 µM; with HCT-116, 53.9 µM; in the experiment with HepG2, above 100 µM; in the experiment with PC-3, 65.4 µM.

With `COc1cc2nc(-c3cc(OC)c(OC)cc3OC)[nH]c2cc1C#Cc1ccc(C(F)(F)F)cc1`, the IC50 with A549 was determined as 33.1 µM; in the experiment on MCF7 it was 66.7 µM; in the experiment with SiHa it was 24.4 µM; in the experiment on HCT-116 it was 4.47 µM; in the experiment with HepG2, 44.6 µM; in the experiment on PC-3, 19.5 µM.

`COc1cc2nc(-c3ccc(OC)c(OC)c3OC)[nH]c2cc1C#Cc1ccccc1F`: the IC50 in the experiment with A549 is above 100 µM; with MCF7 it was above 100 µM; with SiHa, above 100 µM; in the experiment on HCT-116, 39.3 µM; in the experiment on HepG2, 35.6 µM; with PC-3, 26.9 µM.

For the molecule `CCOC(=O)/C=C/c1cc2[nH]c(-c3cc(OC)c(OC)cc3OC)nc2cc1OC`, the IC50 came to 14.8 µM with A549; 22 µM in the experiment with MCF7; 9.8 µM in the experiment on SiHa; 6.94 µM in the experiment on HCT-116; 13.7 µM with HepG2; 4.01 µM in the experiment on PC-3.

`COc1cc2nc(-c3cc(OC)c(OC)cc3OC)[nH]c2cc1/C=C/C(=O)NC(C)C`: the IC50 is above 100 µM with A549; above 100 µM with MCF7; above 100 µM in the experiment on SiHa; 37.4 µM in the experiment with HCT-116; 55.6 µM in the experiment with HepG2; 92.6 µM with PC-3.

Consider `COc1cc2nc(-c3ccc(OC)c(OC)c3OC)[nH]c2cc1C#Cc1ccc(C(F)(F)F)cc1`, for which the IC50 in the experiment with A549 is 46.1 µM; in the experiment with MCF7, above 100 µM; with SiHa, 86.6 µM; in the experiment on HCT-116, 15 µM; in the experiment with HepG2, 56.8 µM; with PC-3 it was 41.1 µM.

For the molecule `COc1cc2nc(-c3cc(OC)c(OC)cc3OC)[nH]c2cc1/C=C/C(=O)NC(C)(C)C`, the IC50 in the experiment on A549 turned out to be 8.36 µM; in the experiment with MCF7, 21.7 µM; in the experiment on SiHa, 3.48 µM; with HCT-116 it was 3.11 µM; in the experiment on HepG2, 13 µM; in the experiment with PC-3 it was 3.74 µM.
